Results: patent US20040087590A1, “Novel biphenyl and biphenyl-like cannabinoids” (University of Connecticut, priority 2002, published 2004)
Like-named read-outs stand apart in the source and are kept apart here.

How the values were obtained:
CB2 receptor = target: T1, CB2 receptor (Mus musculus, UniProt P47936); test: CB2 receptor binding assay ([3H] CP-55,940 displacement, mouse spleen membranes)
T1 construct: membranes were prepared from frozen mouse spleen; from tissue; host or cells: frozen mouse spleen membranes
T1 sequence (P47936 whole entry): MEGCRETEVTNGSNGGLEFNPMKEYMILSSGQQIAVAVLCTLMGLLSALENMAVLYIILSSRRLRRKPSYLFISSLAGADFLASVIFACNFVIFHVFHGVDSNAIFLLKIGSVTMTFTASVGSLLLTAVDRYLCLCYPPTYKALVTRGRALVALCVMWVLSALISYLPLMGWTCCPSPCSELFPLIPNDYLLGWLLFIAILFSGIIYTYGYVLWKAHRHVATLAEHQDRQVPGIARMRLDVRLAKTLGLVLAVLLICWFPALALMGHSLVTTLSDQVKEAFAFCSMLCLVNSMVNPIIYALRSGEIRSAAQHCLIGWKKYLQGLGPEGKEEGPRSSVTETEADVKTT
Protocol: The treated membranes were subsequently used in the binding assay described below. Approximately 30 μg of membranes were incubated in silanized 96-well microtiter plate with TME containing 0.1% essentially fatty acid-free bovine serum albumin (BSA), 0.8 nM [^3H] […] Radioactivity was detected using MicroScint 20 scintillation cocktail added directly to the dried filterplates, and the filterplates were counted using a Packard Instruments Top-Count. […] Data collected from three independent experiments performed with duplicate determinations was normalized between 100% and 0% specific binding for [^3H] […] The normalized data was analyzed using a 4-parameter nonlinear logistic equation to yield IC50 values.
Silanized centrifuge tubes were used throughout to minimize receptor loss due to adsorption. The CB2 binding assay was conducted in the same manner as for the CB1 binding assay. The binding affinities (Ki) were also expressed in nanomoles (nM).

CB1 cannabinoid receptor = target: T2, CB1 cannabinoid receptor (Rattus norvegicus, UniProt P20272); test: CB1 receptor binding assay ([3H] CP-55,940 displacement, rat forebrain membranes); conditions: 0.8 nM [3H] CP-55,940, read-out: CB1 (nM) binding affinity (Ki)
T2 construct: membranes were prepared from rat forebrain membranes; from tissue; host or cells: rat forebrain membranes
T2 sequence (P20272 whole entry): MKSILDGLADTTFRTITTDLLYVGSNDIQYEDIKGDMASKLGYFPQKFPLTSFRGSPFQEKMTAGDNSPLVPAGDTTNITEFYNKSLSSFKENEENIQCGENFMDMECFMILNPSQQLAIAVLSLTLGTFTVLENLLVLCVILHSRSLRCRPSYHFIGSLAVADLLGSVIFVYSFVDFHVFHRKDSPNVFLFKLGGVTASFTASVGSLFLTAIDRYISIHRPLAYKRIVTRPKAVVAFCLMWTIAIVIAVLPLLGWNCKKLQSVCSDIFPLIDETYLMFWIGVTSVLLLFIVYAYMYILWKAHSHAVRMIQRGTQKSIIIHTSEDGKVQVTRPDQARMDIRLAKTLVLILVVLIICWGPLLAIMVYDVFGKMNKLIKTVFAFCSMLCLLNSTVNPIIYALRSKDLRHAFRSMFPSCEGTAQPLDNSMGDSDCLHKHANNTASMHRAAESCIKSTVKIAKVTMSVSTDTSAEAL
Protocol: Some inventive analogs were tested for CB2 receptor binding affinity and for CB1 receptor affinity (to determine selectivity). As used herein, “binding affinity” is represented by the Ki value which is the inhibition constant correlated with the concentration of an analog required to occupy the 50% of the total number (Bmax) of the receptors. The lower the Ki value, the higher the binding affinity. […] For the CB1 receptor binding studies, membranes were prepared from rat forebrain membranes according to the procedure of P. R. Dodd et al, A Rapid Method for Preparing Synaptosomes: Comparison with Alternative Procedures, Brain Res., 107-118 (1981). The binding of the novel analogues to the CB1 cannabinoid receptor was assessed as described in W. A. Devane et al, Determination and Characterization of a Cannabinoid Receptor in a Rat Brain, Mol. Pharmacol., 34, 605-613 (1988) and A. Charalambous et al, 5′-azido Δ^8-THC: A Novel Photoaffinity Label for the Cannabinoid Receptor, J. Med. Chem., 35, 3076-3079 (1992) with the following changes. The above articles are incorporated by reference herein.
Membranes, previously frozen at −80° C., were thawed on ice. To the stirred suspension was added three volumes of TME (25 mM Tris-HCl buffer, 5 mM MgCl2 and 1 mM EDTA) at a pH 7.4. The suspension was incubated at 4° C. for 30 min. At the end of the incubation, the membranes were pelleted and washed three times with TME.
The treated membranes were subsequently used in the binding assay described below. Approximately 30 μg of membranes were incubated in silanized 96-well microtiter plate with TME containing 0.1% essentially fatty acid-free bovine serum albumin (BSA), 0.8 nM [^3H] CP-55,940, and various concentrations of test materials in a final volume of 200 μL. The assays were incubated for 1 hour at 30° C. and then immediately filtered using Packard Filtermate 196 harvester and Whatman GF/C filterplates and washed with wash buffer (TME) containing 0.5% BSA. Radioactivity was detected using MicroScint 20 scintillation cocktail added directly to the dried filterplates, and the filterplates were counted using a Packard Instruments Top-Count. Nonspecific binding was assessed using 100 nM CP-55,940. Data collected from three independent experiments performed with duplicate determinations was normalized between 100% and 0% specific binding for [^3H] CP-55,940, determined using buffer and 100 nM CP-55,940. The normalized data was analyzed using a 4-parameter nonlinear logistic equation to yield IC50 values. Data from at least two independent experiments performed in duplicate was used to calculate IC50 values which were converted to Ki values using the assumptions of Cheng et al, Relationship Between the Inhibition Constant (Ki) and the concentration of Inhibitor which causes 50% Inhibition (IC50) of an Enzymatic Reaction, Biochem. Pharmacol., 22, 3099-3102, (1973), which is incorporated by reference herein.

[1] = mouse spleen membranes, [3H] CP-55,940, read-out: CB2 (nM) binding affinity (Ki)

Row | Structure (SMILES) | Ki (CB2 receptor; [1]) [nM] | Ki (CB1 cannabinoid receptor) [nM] | Ki (CB2 receptor) [nM]
1 | CCCCCCC(C)(C)c1cc(O)c(-c2cc(Cl)cc(Cl)c2)c(O)c1 [Compound 1] | 0.6 | 2.6 | 
2 | CCCCCCC(C)(C)c1cc(O)c(-c2cc(C(F)(F)F)cc(C(F)(F)F)c2)c(O)c1 [Compound 2] | 0.9 | 9.7 | 
3 | CCCCCCC(C)(C)c1cc(O)c(-c2cc([N+](=O)[O-])cc([N+](=O)[O-])c2)c(O)c1 [Compound 3] | 3.5 | 199 | 
4 | CCCCCCC(C)(C)c1cc(O)c(-c2cc(F)cc(F)c2)c(O)c1 [Compound 4] | 8.4 | 57.5 | 
5 | CCCCCCC(C)(C)c1cc(O)c(-c2cc(C)ccc2F)c(O)c1 [Compound 5] | 2.3 | 6.5 | 
6 | CCCCCCC(C)(C)c1cc(O)c(-c2cc(Cl)ccc2Cl)c(O)c1 [Compound 6] | 2.6 | 7.7 | 
7 | CCCCCCC(C)(C)c1cc(O)c(-c2cc(Cl)cc(Cl)c2)c(OC)c1 [Compound 7] | 13.9 | 105 | 
8 | CCCCCCC(C)(C)c1cc(O)c(-c2c(F)cccc2F)c(O)c1 [Compound 8] | 13.4 | 40.3 | 
9 | CCCCCCC(C)(C)c1cc(O)c(-c2c(Cl)ccc(Cl)c2Cl)c(O)c1 [Compound 9] |  | 23.2 | 3.4
10 | CCCCCCC(C)(C)c1cc(O)c(-c2cc(C)c(O)c(C)c2)c(O)c1 [Compound 10] | 15.3 | 1360 | 
11 | CCCCCCC(C)(C)c1cc(O)c(-c2cc(C)c(OC)c(C)c2)c(O)c1 [Compound 11] | 12.8 | 1080 | 
12 | CCCCCCC(C)(C)c1cc(O)c(-c2cc(C)c(N)c(C)c2)c(O)c1 [Compound 12] | 8 | 797 | 
13 | CCCCCCC(C)(C)c1cc(O)c(-c2ccccc2CO)c(O)c1 [Compound 14] | 1.4 | 53.8 | 
14 | CCCCCCC(C)(C)c1cc(O)c(-c2cc(O)ccc2CO)c(O)c1 [Compound 15] |  | 141 | 4.5
15 | CCCCCCC(C)(C)c1cc(O)c(-c2cncc(C(=O)OCC)c2)c(O)c1 [Compound 21] |  | 17.2 | 0.2
16 | CCCCCCC(C)(C)c1cc(O)c(-c2cccc(C(=O)OCC)c2)c(O)c1 [Compound 22] | 0.8 | 241 | 
17 | CCCCCCC(C)(C)c1cc(O)c(-c2cccc(C(C)=O)c2)c(O)c1 [Compound 24] |  | 297 | 11.3
18 | CCCCCCC(C)(C)c1cc(O)c(-c2cc(O)ccc2CCCO)c(O)c1 [Compound 25] | 1 | 12.2 | 
19 | CCCCCCC(C)(C)c1cc(O)c(-c2cc(F)ccc2CO)c(O)c1 [Compound 26] | 1.8 | 24.5 | 
20 | CCCCCCC(C)(C)c1cc(O)c(-c2cc(CO)ccc2CO)c(O)c1 [Compound 27] | 2.6 | 29.6 | 
21 | CCCCCCC(C)(C)c1cc(O)c(-c2cc(CO)ccc2C)c(O)c1 [Compound 28] | 7 | 70.4 | 
22 | CCCCCCC(C)(C)c1cc(O)c(-c2ccc(C(=O)OCC)o2)c(O)c1 [Compound 29] |  | 3220 | 35.4
23 | CCCCCCC(C)(C)c1cc(O)c(-c2cccc(/C=C/C(=O)OCC)c2)c(O)c1 [Compound 30] | 10 | 397 | 
24 | CCCCCCC(C)(C)c1cc(O)c(-c2cccc(C#N)c2)c(O)c1 [Compound 31] | 1.1 | 20 | 
25 | CCCCCCC(C)(C)c1cc(O)c(-c2cc(Br)ccc2CO)c(O)c1 [Compound 32] |  | 8.6 | 0.7
26 | CCCCCCCN(C)c1cc(O)c(-c2cc(OC)ccc2C(=O)N(C(C)C)C(C)C)c(OC)c1 [Compound 36] |  | 1870 | 154
